Reference: paper PMC7721589, “Synthesis and structure-activity relationships for tetrahydroisoquinoline-based inhibitors of Mycobacterium tuberculosis” (Bioorganic & Medicinal Chemistry, 2020)
In brackets after ≈: the same amount, converted by molar mass. Where two headings read alike, the source gives them in different places.

Key:
[1] = test system: Vero green monkey-derived epithelial kidney cells; assay: Mammalian cytotoxicity in Vero cells; type: cell-based; conditions: for IC50: Chlorocebus sabaeus
[2] = Microsomal clearance in human liver microsomes; note: unit not given here
[3] = Microsomal clearance in mouse liver microsomes; note: unit not given here
M.tb strain H37Rv [4] = assay: MIC against M.tb H37Rv under non-replicating (LORA) conditions; conditions: for MIC LORA: MIC90, Table 1; for MIC (µg/mL) LORA: MIC90, Table 2
M.tb strain H37Rv [5] = assay: MIC against M.tb H37Rv under aerobic (replicating; MABA) conditions; type: cell-based, Mycobacterium tuberculosis; conditions: for MIC MABA: MIC90, Table 1; for MIC: Mycobacterium tuberculosis
[6] = molecular target: M. smegmatis ATP synthase (Mycolicibacterium smegmatis, UniProt A0R205+A0R206); assay: Inhibition of mycobacterial ATP synthase; type: biochemical; conditions: for selectivity over the human enzyme: M. smegmatis vs human mitochondrial ATP synthase; for IC50: read-out: M. smeg ATPsynth IC50, M. smegmatis ATP synthase
[7] = mouse, microsomes
[8] = human, microsomes
[9] = Stability in CDCl3 solution; type: physicochemical; conditions: over 1–2 days
Source text: Note: The X = OMe compounds 8 and 9 were unstable in CDCl3 solution over 1–2 days.

[10] = MIC90, Table 1, read-out: MIC MABA

Molecule | MIC LORA (M.tb strain H37Rv [4]) [µg/mL] | IC50 ([1]; Table 1) [µg/mL] | IC50 [6] [µM] | MIC (M.tb strain H37Rv [5]; [10]) [µg/mL] | melting point [°C] | other results
2-((5-(4-Chlorophenyl)pyridin-2-yl)methyl)-8-(4-methylpiperazin-1-yl)-5-methyl-1,2,3,4-tetrahydroisoquinoline [Compound 12] | 5.2 | – | – | – | – | IC50 VERO ([1]; Table 1): 14 µg/mL; HLM Clint [2]: 92; MLM Clint [3]: 239; MIC (µg/mL) LORA (M.tb strain H37Rv [4]): 5.2 µg/mL; MIC MABA (M.tb strain H37Rv [5]): 0.79 µg/mL; MIC (µg/mL) MABA (M.tb strain H37Rv [5]; MIC90, Table 2): 0.79 µg/mL
CN1CCN(c2cccc3c2CN(Cc2ccc(-c4ccc(Cl)cc4)cn2)CC3)CC1 [Compound 10, 2-((5-(4-Chlorophenyl)pyridin-2-yl)methyl)-8-(4-methylpiperazin-1-yl)-1,2,3,4-tetrahydroisoquinoline] | 16 (≈ 37 µM) | 16 (≈ 37 µM) | 16.6 | 1.8 (≈ 4.16 µM) | – | selectivity over the human enzyme [6]: > 70 fold; MLM Clint [7]: 238; HLM Clint [8]: 121
CN1CCN(c2cccc3c2CN(C(=O)Nc2ccc(-c4ccc(OC(F)(F)F)cc4)cn2)CC3)CC1 [Compound 23, 8-(4-Methylpiperazin-1-yl)-N-(5-(4-(trifluoromethoxy)phenyl)pyridin-2-yl)-3,4-dihydroisoquinoline-2(1H)-carboxamide] | 3.9 (≈ 7.62 µM) | 14 (≈ 27.4 µM) | 12.1 | 3.6 (≈ 7.04 µM) | – | selectivity over the human enzyme [6]: > 80 fold
Cc1ccc(N2CCN(C)CC2)c2c1CCN(C(=O)Nc1ccc(-c3cc(C(F)(F)F)cc(C(F)(F)F)c3)cn1)C2 [Compound 26, N-(5-(3,5-Bis(trifluoromethyl)phenyl)pyridin-2-yl)-5-methyl-8-(4-methylpiperazin-1-yl)-3,4-dihydroisoquinoline-2(1H)-carboxamide] | 5.3 (≈ 9.18 µM) | > 32 | 24.2 | 3.1 (≈ 5.37 µM) | 114 to 117 | –
CCc1ccc(N2CCN(C)CC2)c2c1CCN(C(=O)Nc1ccc(-c3ccc(C(F)(F)F)cc3)cn1)C2 [Compound 27, 5-Ethyl-8-(4-methylpiperazin-1-yl)-N-(5-(4-(trifluoromethyl)phenyl)pyridin-2-yl)-3,4-dihydroisoquinoline-2(1H)-carboxamide] | 0.9 (≈ 1.72 µM) | 12 (≈ 22.9 µM) | 4.2 | 1 (≈ 1.91 µM) | – | MLM Clint [7]: 810; HLM Clint [8]: 107
COc1ccc(-c2ccc(NC(=O)N3CCc4c(OC)ccc(N5CCN(C)CC5)c4C3)nc2)cn1 [Compound 32, 5-Methoxy-N-(6′-methoxy-[3,3′-bipyridin]-6-yl)-8-(4-methylpiperazin-1-yl)-3,4-dihydroisoquinoline-2(1H)-carboxamide] | 20 (≈ 40.9 µM) | 14 (≈ 28.7 µM) | – | 15.5 (≈ 31.7 µM) | 93 to 96 | –
COc1ccc(-c2ccc(NC(=O)N3CCc4c(OC)ccc(N5CCN(C)CC5)c4C3)nc2)cc1 [Compound 33, 5-Methoxy-N-(5-(4-methoxyphenyl)pyridin-2-yl)-8-(4-methylpiperazin-1-yl)-3,4-dihydroisoquinoline-2(1H)-carboxamide] | 7.4 (≈ 15.2 µM) | 16 (≈ 32.8 µM) | – | 7.1 (≈ 14.6 µM) | 207 to 209 | –
COc1ccc(N2CCN(C)CC2)c2c1CCN(C(=O)Nc1ccc(-c3ccc(C(F)(F)F)cc3Cl)cn1)C2 [Compound 34, N-(5-(2-Chloro-4-(trifluoromethyl)phenyl)pyridin-2-yl)-5-methoxy-8-(4-methylpiperazin-1-yl)-3,4-dihydroisoquinoline-2(1H)-carboxamide] | 3.2 (≈ 5.71 µM) | 12 (≈ 21.4 µM) | – | 3.6 (≈ 6.43 µM) | 61 to 64 | –
COc1ccc(N2CCN(C)CC2)c2c1CCN(C(=O)Nc1ccc(-c3ccc(Cl)cc3C)cn1)C2 [Compound 35, N-(5-(4-chloro-2-methylphenyl)pyridin-2-yl)-5-methoxy-8-(4-methylpiperazin-1-yl)-3,4-dihydroisoquinoline-2(1H)-carboxamide] | 3.1 (≈ 6.13 µM) | 12 (≈ 23.7 µM) | 12.4 | 1.9 (≈ 3.75 µM) | 99 to 101 | –
COc1ccc(N2CCN(C)CC2)c2c1CCN(C(=O)Nc1ccc(-c3ccc(Cl)cc3Cl)cn1)C2 [Compound 36, N-(5-(2,4-Dichlorophenyl)pyridin-2-yl)-5-methoxy-8-(4-methylpiperazin-1-yl)-3,4-dihydroisoquinoline-2(1H)-carboxamide] | – | > 32 | 5.7 | 1.9 (≈ 3.61 µM) | 108 to 111 | MLM Clint [7]: 584; HLM Clint [8]: 48
COc1ccc(N2CCN(C)CC2)c2c1CCN(C(=O)Nc1ccc(-c3ccc(OC(F)(F)F)cc3)cn1)C2 [Compound 37, 5-Methoxy-8-(4-methylpiperazin-1-yl)-N-(5-(4-(trifluoromethoxy)phenyl)pyridin-2-yl)-3,4-dihydroisoquinoline-2(1H)-carboxamide] | 3.0 (≈ 5.54 µM) | 12 (≈ 22.2 µM) | – | 3.1 (≈ 5.72 µM) | 196 to 198 | –
CSc1ccc(N2CCN(C)CC2)c2c1CCN(C(=O)Nc1ccc(-c3ccc(Cl)cc3C)cn1)C2 [Compound 40, N-(5-(4-Chloro-2-methylphenyl)pyridin-2-yl)-8-(4-methylpiperazin-1-yl)-5-(methylthio)-3,4-dihydroisoquinoline-2(1H)-carboxamide] | 2.0 (≈ 3.83 µM) | 13 (≈ 24.9 µM) | – | 1.9 (≈ 3.64 µM) | 111 to 114 | –
Cc1cc(Cl)ccc1-c1ccc(NC(=O)N2CCc3c(F)ccc(N4CCN(C)CC4)c3C2)nc1 [Compound 42, N-(5-(4-Chloro-2-methylphenyl)pyridin-2-yl)-5-fluoro-8-(4-methylpiperazin-1-yl)-3,4-dihydroisoquinoline-2(1H)-carboxamide] | 5.4 (≈ 10.9 µM) | 12 (≈ 24.3 µM) | 3.64 | 1.2 (≈ 2.43 µM) | 98 to 101 | selectivity over the human enzyme [6]: 9.4 fold; MLM Clint [7]: 65; HLM Clint [8]: 50
CN1CCN(c2cccc3c2CN(C(=O)Cc2ccc(-c4ccc(Cl)cc4)cn2)CC3)CC1 [Compound 43, 2-(5-(4-Chlorophenyl)pyridin-2-yl)-1-(8-(4-methylpiperazin-1-yl)-3,4-dihydroisoquinolin-2(1H)-yl)ethan-1-one] | 20.3 (≈ 44 µM) | 19 (≈ 41.2 µM) | – | 14.1 (≈ 30.6 µM) | 49 to 52 | –
Cc1cc(Cl)ccc1-c1ccc(CC(=O)N2CCc3cccc(N4CCN(C)CC4)c3C2)nc1 [Compound 47] | 19.4 (≈ 40.8 µM) | 11 (≈ 23.2 µM) | – | 14 (≈ 29.5 µM) | 45 to 48 | –
Cc1ccc(N2CCN(C)CC2)c2c1CCN(C(=O)N1CCC(Oc3ccc(OC(F)(F)F)cc3)CC1)C2 [Compound 48, (5-Methyl-8-(4-methylpiperazin-1-yl)-3,4-dihydroisoquinolin-2(1H)-yl)(4-(4-(trifluoromethoxy)phenoxy)piperidin-1-yl)methanone] | 3.9 (≈ 7.32 µM) | 19 (≈ 35.7 µM) | – | 6.4 (≈ 12 µM) | – | MLM Clint [7]: 40; HLM Clint [8]: 48
Cc1ccc(N2CCN(C)CC2)c2c1CCN(C(=O)N1CCC(Oc3ccccc3C(F)(F)F)CC1)C2 [Compound 49, (5-Methyl-8-(4-methylpiperazin-1-yl)-3,4-dihydroisoquinolin-2(1H)-yl)(4-(2-(trifluoromethyl)phenoxy)piperidin-1-yl)methanone] | 7.3 (≈ 14.1 µM) | 11 (≈ 21.3 µM) | 12 | 7.7 (≈ 14.9 µM) | – | –
COc1ccc(N2CCN(C)CC2)c2c1CCN(C(=O)N1CCC(Oc3ccc(OC(F)(F)F)cc3)CC1)C2 [Compound 50, (5-Methoxy-8-(4-methylpiperazin-1-yl)-3,4-dihydroisoquinolin-2(1H)-yl)(4-(4-(trifluoromethoxy)phenoxy)piperidin-1-yl)methanone] | 7.0 (≈ 12.8 µM) | 15 (≈ 27.3 µM) | – | 7.6 (≈ 13.9 µM) | 49 to 51 | –
COc1ccc(N2CCN(C)CC2)c2c1CCN(C(=O)N1CCC(Oc3ccccc3C(F)(F)F)CC1)C2 [Compound 51, (5-Methoxy-8-(4-methylpiperazin-1-yl)-3,4-dihydroisoquinolin-2(1H)-yl)(4-(2-(trifluoromethyl)phenoxy)piperidin-1-yl)methanone] | 10.0 (≈ 18.8 µM) | 24 (≈ 45.1 µM) | – | 12 (≈ 22.5 µM) | 74 to 77 | –
Cc1cc(Cl)ccc1-c1ccc(CN2CCc3c(C)ccc(N4CCSCC4)c3C2)nc1 [Compound 54, 4-(2-((5-(4-Chloro-2-methylphenyl)pyridin-2-yl)methyl)-5-methyl-1,2,3,4-tetrahydroisoquinolin-8-yl)yhiomorpholine] | – | – | – | – | 133 to 135 | IC50 ([1]; Table 2): > 32 µg/mL; MIC (µg/mL) LORA (M.tb strain H37Rv [4]): 5.9 µg/mL (≈ 12.7 µM); MIC (M.tb strain H37Rv [5]; MIC90, Table 2, read-out: MIC (µg/mL) MABA): 3.4 µg/mL (≈ 7.33 µM)
N-(5-(3,5-bis(trifluoromethyl)phenyl)pyridin-2-yl)-5-methoxy-8-(4-methylpiperazin-1-yl)-3,4-dihydroisoquinoline-2(1H)-carboxamide [Compound 9] | 12 | – | – | – | – | IC50 VERO ([1]; Table 1): 19 µg/mL; stability in CDCl3 solution [9]: unstable; MIC MABA (M.tb strain H37Rv [5]): 7.9 µg/mL
N-(5-(4-(tert-butyl)phenyl)pyridin-2-yl)-5-methyl-8-(4-methylpiperazin-1-yl)-3,4-dihydroisoquinoline-2(1H)-carboxamide [Compound 7] | 3.4 | – | – | – | – | IC50 VERO ([1]; Table 1): 18 µg/mL; HLM Clint [2]: 41; MLM Clint [3]: 56; MIC MABA (M.tb strain H37Rv [5]): 1.4 µg/mL
